Source: patent publication US10881656B2, “HIF inhibitors and use thereof” (The General Hospital Corporation, priority 2008, dated 2021)

Legend:
HIF-2a mRNA = assay: qRT-PCR for HIF-2a mRNA expression; type: cell-based, human; details: 786-O derived cells, qRT-PCR normalized to B2M
Description: ID NO: 1) and [NT] […] ID NO: 3) and [NT] ID NO: 4) for […] ID NO: 5) and [NT] ID NO: 6) for Transferrin Receptor 1 ([…] ID NO: 7) and [NT] ID NO: 8) for […] ID NO: 9) and [NT] ID NO: 10) for […] ID NO. 11) and [NT] ID NO: 12) for EGLN3. […] ID NO: 13) and [NT] ID NO: 14). Quantitative RT-PCR was performed on total RNA harvested from 7H4 cells treated with medium only, DMSO or compound. […] To test whether the compounds alter HIF-2a stability, the inventors assessed protein half-life following the addition of cycloheximide in compound versus DMSO-only treated cells (see FIG. 10).

IRP1 [1] = molecular target: IRP1 (Homo sapiens, UniProt P21399); assay: HIF-2a activity (EGLN3 qRT-PCR) in IRP knock down lines; details: 786-O IRP knock down lines
Sequence of IRP1 (Homo sapiens, UniProt P21399) (P21399 whole entry): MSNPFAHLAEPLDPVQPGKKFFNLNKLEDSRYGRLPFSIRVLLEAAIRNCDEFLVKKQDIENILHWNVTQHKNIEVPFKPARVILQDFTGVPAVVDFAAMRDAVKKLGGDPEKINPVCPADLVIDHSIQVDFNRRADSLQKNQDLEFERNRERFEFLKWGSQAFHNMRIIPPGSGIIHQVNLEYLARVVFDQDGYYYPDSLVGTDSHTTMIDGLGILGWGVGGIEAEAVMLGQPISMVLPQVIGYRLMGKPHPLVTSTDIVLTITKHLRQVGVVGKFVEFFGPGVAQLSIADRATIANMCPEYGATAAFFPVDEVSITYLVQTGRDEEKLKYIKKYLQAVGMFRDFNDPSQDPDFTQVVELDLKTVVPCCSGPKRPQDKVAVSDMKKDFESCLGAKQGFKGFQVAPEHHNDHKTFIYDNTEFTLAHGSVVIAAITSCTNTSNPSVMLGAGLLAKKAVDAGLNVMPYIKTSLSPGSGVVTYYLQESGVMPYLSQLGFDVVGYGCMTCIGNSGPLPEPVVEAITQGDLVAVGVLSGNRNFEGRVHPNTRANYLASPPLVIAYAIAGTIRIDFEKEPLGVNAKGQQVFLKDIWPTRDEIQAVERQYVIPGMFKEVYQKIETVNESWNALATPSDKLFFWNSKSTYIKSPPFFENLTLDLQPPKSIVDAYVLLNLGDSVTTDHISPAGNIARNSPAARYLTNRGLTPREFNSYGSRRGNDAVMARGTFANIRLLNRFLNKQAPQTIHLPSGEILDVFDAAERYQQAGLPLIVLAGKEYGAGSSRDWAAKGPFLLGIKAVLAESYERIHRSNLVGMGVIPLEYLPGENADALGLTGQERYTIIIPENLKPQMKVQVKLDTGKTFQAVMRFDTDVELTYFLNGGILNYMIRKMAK

[2] = molecular target: T1, IRP2 binding to Ferritin-L IRE (Homo sapiens, UniProt P48200); assay: Electrophoretic mobility shift assay, Ferritin L IRE probe; details: 786-O lysates, EMSA
T1 construct: when expressed in endogenous levels; endogenous in cells; host or cells: 786-O
T1 sequence (P48200 whole entry): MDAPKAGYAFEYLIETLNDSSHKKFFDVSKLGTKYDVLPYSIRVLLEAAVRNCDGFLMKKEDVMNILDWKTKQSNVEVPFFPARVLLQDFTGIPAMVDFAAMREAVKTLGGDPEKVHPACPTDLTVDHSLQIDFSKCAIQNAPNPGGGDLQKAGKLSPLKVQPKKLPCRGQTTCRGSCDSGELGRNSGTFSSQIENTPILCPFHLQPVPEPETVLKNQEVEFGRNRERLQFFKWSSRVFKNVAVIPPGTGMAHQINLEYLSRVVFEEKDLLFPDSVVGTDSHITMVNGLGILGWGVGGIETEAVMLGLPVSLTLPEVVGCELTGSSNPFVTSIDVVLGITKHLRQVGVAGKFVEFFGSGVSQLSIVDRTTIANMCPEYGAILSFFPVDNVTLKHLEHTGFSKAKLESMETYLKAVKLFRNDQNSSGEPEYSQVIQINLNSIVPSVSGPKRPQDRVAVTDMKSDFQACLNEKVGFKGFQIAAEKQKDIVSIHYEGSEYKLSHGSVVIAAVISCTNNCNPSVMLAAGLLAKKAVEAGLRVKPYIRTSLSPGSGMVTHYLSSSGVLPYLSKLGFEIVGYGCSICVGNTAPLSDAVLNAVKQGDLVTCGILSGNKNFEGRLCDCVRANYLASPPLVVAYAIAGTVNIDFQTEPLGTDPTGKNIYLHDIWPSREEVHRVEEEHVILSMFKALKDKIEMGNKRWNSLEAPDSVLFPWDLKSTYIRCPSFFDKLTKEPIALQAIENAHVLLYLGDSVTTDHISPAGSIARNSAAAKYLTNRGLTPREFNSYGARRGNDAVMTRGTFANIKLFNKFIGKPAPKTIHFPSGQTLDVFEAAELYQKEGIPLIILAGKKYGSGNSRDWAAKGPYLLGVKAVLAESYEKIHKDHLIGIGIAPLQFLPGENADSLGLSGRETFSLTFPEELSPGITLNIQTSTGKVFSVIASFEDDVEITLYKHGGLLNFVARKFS
Description: EMSAs were performed as described previously (Fillebeen et al., 2003). Briefly, 50 μg lysate from 786-O cells treated with medium only, DMSO, or compounds were incubated with 25,000 cpm wild-type or mutant radiolabeled HIF-2a IRE probe for 20 minutes at room temperature before loading onto non-denaturing acrylamide gels. Supershifts were performed identically, save that 0.2 μg control, IRP1 or IRP2 antibodies were also added. Total protein content was estimated by Bradford Assay (BioRad, 500-0006), and even loading for all experiments was confirmed by Western blot for B-Actin.
Inventors discovered that compound 76 increased the residual amount of IRP1 bound to the HIF-2a IRE in hypoxia, although not to the same extent as that observed in normoxic cells. […] Lastly, to further investigate the involvement of IRP2 in HIF-2a IRE, the inventors compared side by side IRP2 binding to HIF-2a and Ferritin-L IRE in 786-O cells, in conditions of normoxia or hypoxia and after treatment with compound 76 or DFO (FIG. 7E). While IRP2 binding was clearly detected on Ferritin IRE, the inventors were not able to detect measurable IRP2 binding on HIF-2a IRE.

HIF-2a target genes = assay: HIF-2a target gene expression (Glut-1 Western blot, VEGF and IGFBP3 ELISA, EGLN3 qRT-PCR); type: cell-based, human; details: treated 786-O cells
Description: ID NO: 1) and [NT] […] ID NO: 3) and [NT] ID NO: 4) for […] ID NO: 5) and [NT] ID NO: 6) for Transferrin Receptor 1 ([…] ID NO: 7) and [NT] ID NO: 8) for […] ID NO: 9) and [NT] ID NO: 10) for […] ID NO. 11) and [NT] ID NO: 12) for EGLN3. […] ID NO: 13) and [NT] ID NO: 14). […] VEGF or IGFBP3 ELISA was performed on the conditioned supernatant using Quantikine immunoassay kits (R&D Systems, DVE00 for VEGF, DGB300 for IGFBP3). […] Hypoxia stabilized HIF-2a in VHL-reconstituted WT8 cells, but treatment with compounds diminished hypoxia-induced HIF-2a expression (FIG. 3C).

[3] = system: 7SV (SV40-luciferase) cells; assay: SV40-luciferase control reporter assay in 786-O derived 7SV cells; type: cell-based, human; details: 48 hours
Description: The screen for small molecule inhibitors was performed in the Institute for Chemical and Cellular biology, Harvard Medical School. 7SV or 7H4 cells were plated onto 384-well plates. The next day compounds were added robotically to the medium, to a final concentration of approximately 10 μM. 24 hours later, media was aspirated and Passive Lysis Buffer (Promega) and Luciferase Assay Reagent II (Promega) were added. Luciferase activity was measured with an Analyst plate reader (LJL Biosystems). All experiments were performed in duplicate and the identity of lead compounds was confirmed by mass spectroscopy
Luciferase assays were performed using the Promega's Dual-luciferase Assay Reporter System (Promega, E1910) according to the manufacturer's instructions. Counts obtained from transient transfections were normalized for co-transfected Renilla luciferase. Stable clones were normalized to medium only treated wells.
Functionally validated HRE and control SV40 luciferase reporter constructs were stably introduced into VHL-deficient 786-O cells to generate 7H4 and 7SV lines, respectively (see FIG. 8A). […]
To validate the connectivity map-derived prediction that PGJ2 is involved in HIF signaling, the inventors treated HRE-luciferase expressing 786-O cells (7H4) and SV40-luciferase expressing control cells (7SV) with increasing doses of PGJ2. […] Luciferase activity was measured at 48 hours.

IRP1 [4] = assay: IRP1 expression in treated cells; type: cell-based, human
From the text: The inventors next tested the effect of hypoxia on the binding of IRP1 to the HIF-2a wild-type IRE. […] This is due to decreased mRNA binding, as western blots confirm that neither compound application nor hypoxia affects IRP1 protein expression. The involvement of IRP1 was further confirmed with super-shifting experiments with IRP1 antibody (FIG. 7C). No supershifted bands were observed using IRP2 antibody.
However, IRP2 contributes very little—if at all—to the total IRP bound to the HIF2a IRE (Zimmer et al., 2008).

binding of IRP2 to Ferritin-L IRE [2]	Structure (SMILES)	HIF-2a mRNA expression (HIF-2a mRNA)	effect on HIF-2a activity when IRP1 is knocked down (IRP1 [1])	expression of HIF-2a target genes (Glut-1, VEGF, IGFBP3, EGLN3) (HIF-2a target genes)	SV40-driven luciferase activity [3]	IRP1 expression (IRP1 [4])
–	C/C(=C\c1ccccc1)C(=O)CCN(C)C.Cl [Compound 40, 5-(dimethylamino)-2-methyl-1-phenyl-1-penten-3-one hydrochloride]	do not effect HIF-2a mRNA expression	–	–	–	–
–	COc1ccc(O)c(/C=C/C(=O)c2c(O)cc(C)oc2=O)c1 [Compound 41, 4-hydroxy-3-[3-(2-hydroxy-5-meoxyphenyl)acryloyl]-6-methyl-2H-pyran-2-one]	do not effect HIF-2a mRNA expression	–	–	–	–
slightly enhanced	COC(=O)c1sccc1N/N=C(/C#N)S(C)(=O)=O [Compound 76, methyl 3-{2-[cyano(methylsulfonyl)methylene] hydrazino}thiophene-2-carboxylate]	do not effect HIF-2a mRNA expression	inhibition of IRP1 is sufficient to block effect of compounds on HIF-2a activity	–	–	–
–	CC1(C)CC(=O)C=C(Sc2ccc(C#N)cc2[N+](=O)[O-])S1 [Compound 77, 4-[(2,2-dimethyl-4-oxo-3,4-dihydro-2H-thiin-6-yl)thio]-3-nitrobenzonitrile]	do not effect HIF-2a mRNA expression	inhibition of IRP1 is sufficient to block effect of compounds on HIF-2a activity	–	–	–
–	CCCCC/C=C/C=C1/C(=O)C=C[C@@H]1C/C=C\CCCC(=O)O [PGJ2, 15-deoxy-Δ^12,14-prostaglandin J2]	no concomitant decrease in HIF2a mRNA expression	–	decrease	not affected	not affected
